Laboratory results from US20220331269A1, “COMPOSITIONS FOR TREATING ACNE” (Botanix Pharmaceuticals Ltd., priority 2017, published 2022).

Test system: inflammatory lesions in patient with acne
Assay: 2-(2-ethoxyethoxy)ethanol tested against an active ingredient (for example dapsone gel) in patients with acne
Assay type: in vivo, human
Description: Without being bound to any theory, we believe that the mechanism for this action is the 2-(2-ethoxyethoxy)ethanol may fluidize the lipids on the skin, thereby retarding the formation of microcomedones. If 2-(2-ethoxyethoxy)ethanol keep lipids from “gluing together” the desquamated keratinocytes, the number of clogged follicles, and subsequently the number of inflammatory lesions, would potentially be reduced. 2-(2-ethoxyethoxy)ethanol in the compositions of the present invention provides a means for stopping the formation of acne at its source; lipids and desquamated keratinocytes clogging pores leading to inflammation and formation of comedones. The compositions of the present invention may be active in clearing acne if used as a routine cleanser.

Q: For `CCOCCOCCO` [2-(2-ethoxyethoxy)ethanol], which “number of inflammatory lesions” value is on record?
A: appears to have activity to reduce the number of inflammatory lesions
